Source: ChEMBL document CHEMBL6127052, “Discovery of membrane-targeting amphiphilic honokiol derivatives containing an oxazolethione moiety to combat methicillin-resistant Staphylococcus aureus (MRSA) infections” (Eur J Med Chem, 2024)
Active and inactive are the calls of the source. No cut-off for these calls is given here.

Tests used:
Staphylococcus aureus [1] = test: (§1) Antibacterial activity against methicillin-resistant Staphylococcus aureus clinical isolate M12 infected in sepsis BALB/c mouse model assessed as decrease in pathological change in red medulla of spleen at 12 mg/kg, ip administered consecutively at 12 hr-interval for 24 hrs measured after 24 hrs post-last dose by H and E staining based analysis; type: functional, organism-based; conditions: time 48.0 hrs
Staphylococcus aureus [2] = test: Antibacterial activity against methicillin-resistant Staphylococcus aureus clinical isolate M12 infected in KM mouse assessed as smooth skin at infection site at 10 mg/kg, sc measured after 24 hrs; type: functional, organism-based
Staphylococcus aureus [3] = test: Antibacterial activity against methicillin-resistant Staphylococcus aureus clinical isolate M23 by CLSI based micro-broth dilution method; type: functional
Staphylococcus aureus [4] = test: Antibacterial activity against methicillin-resistant Staphylococcus aureus clinical isolate M22 by CLSI based micro-broth dilution method; type: functional
Staphylococcus aureus [5] = test: Antibacterial activity against methicillin-resistant Staphylococcus aureus clinical isolate M12 infected in KM mouse assessed as decrease in bacterial survival rate at 5 mg/kg, sc measured after 24 hrs by drop-plate counting method relative to control; type: functional
Staphylococcus aureus [6] = test: Induction of cell membrane damage in methicillin-resistant Staphylococcus aureus clinical isolate M12 assessed as increase in red fluorescence at 8 times MIC incubated for 4 hrs by DAPI/PI staining based analysis; type: functional, organism-based
Staphylococcus aureus [7] = test: Antibacterial activity against methicillin-resistant Staphylococcus aureus clinical isolate M12 infected in KM mouse assessed as decrease in bacterial survival rate at 10 mg/kg, sc measured after 24 hrs by drop-plate counting method relative to control; type: functional
Staphylococcus aureus [8] = test: Disruption of cell membrane in methicillin-resistant Staphylococcus aureus clinical isolate M12 assessed as fold increase in intracellular ROS level at 128 ug/ml incubated for 40 mins by DCFH-DA probe based analysis relative to control; type: functional; conditions: dose 128 µg/ml
Staphylococcus aureus [9] = test: Induction of membrane permeability in methicillin-resistant Staphylococcus aureus clinical isolate M12 at 8 to 32 times MIC measured for 15 mins by SYTOX Green dye based analysis; type: functional, organism-based
Escherichia coli = test: Antibacterial activity against Escherichia coli ATCC 25922 by CLSI based micro-broth dilution method; type: functional
Staphylococcus aureus [10] = test: Antibacterial activity against methicillin-resistant Staphylococcus aureus clinical isolate M12 incubated for 16 to 18 hrs in presence of peptidoglycan; type: functional; conditions: time 16-18 hrs
Staphylococcus aureus [11] = test: Disruption of cell membrane in methicillin-resistant Staphylococcus aureus clinical isolate M12 assessed as accumulation of intracellular ROS level incubated for 40 mins by DCFH-DA probe based analysis; type: functional, organism-based; conditions: dose <= 128.0 µg/ml
[12] = Toxicity in KM mouse assessed as pathological change in liver at 20 mg/kg, sc measured after 24 hrs by H and E staining based analysis; type: organism-based; conditions: in vivo
[13] = Toxicity in KM mouse assessed as change in albumin level at 20 mg/kg, sc measured after 24 hrs; type: organism-based; conditions: in vivo
Staphylococcus aureus [14] = test: Antibacterial activity against methicillin-resistant Staphylococcus aureus clinical isolate M12 infected in KM mouse assessed as reduction in TNF-alpha level at infection site at 10 mg/kg, sc measured after 24 hrs by ELISA; type: functional
Staphylococcus aureus [15] = test: as §1, with “in white” for “in red”; type: functional, organism-based; conditions: time 48.0 hrs
Staphylococcus aureus [16] = test: Antibacterial activity against methicillin-resistant Staphylococcus aureus clinical isolate M12 infected in KM mouse assessed as decrease in neutrophils at subcutaneous tissues at 5 to 10 mg/kg, sc measured after 24 hrs; type: functional, organism-based; conditions: dose 5-10 mg/kg
[17] = Toxicity in KM mouse infected with methicillin-resistant Staphylococcus aureus clinical isolate M12 assessed as damage in lung at 5 to 10 mg/kg, sc measured after 24 hrs by H and E staining based analysis; type: organism-based; conditions: in vivo, dose 5-10 mg/kg
Staphylococcus aureus [18] = test: Induction of morphological changes in methicillin-resistant Staphylococcus aureus clinical isolate M12 assessed as concavity in cell membrane at 8 times MIC incubated for 4 hrs by SEM analysis; type: functional, organism-based
[19] = Toxicity in KM mouse infected with methicillin-resistant Staphylococcus aureus clinical isolate M12 assessed as damage in heart at 5 to 10 mg/kg, sc measured after 24 hrs by H and E staining based analysis; type: organism-based; conditions: in vivo, dose 5-10 mg/kg
[20] = Toxicity in KM mouse assessed as formation of small erythema at administration site at >40 mg/kg, sc; type: organism-based; conditions: in vivo
Staphylococcus aureus [21] = test: Antibacterial activity against methicillin-resistant Staphylococcus aureus clinical isolate M12 infected in KM mouse assessed as decrease in erythematous pustules in intradermal tissues at 5 mg/kg, sc measured after 24 hrs; type: functional, organism-based
Staphylococcus aureus [22] = test: Antibacterial activity against methicillin-resistant Staphylococcus aureus clinical isolate M12 incubated for 16 to 18 hrs in presence of phosphatidylglycerol; type: functional; conditions: time 16-18 hrs
Staphylococcus aureus [23] = test: Antibacterial activity against Staphylococcus aureus ATCC 29213 by CLSI based micro-broth dilution method; type: functional
Staphylococcus aureus [24] = test: as §1, with “change in white medulla of” for “change in red medulla of”, “spleen at 6 mg/kg, ip” for “spleen at 12 mg/kg, ip”; type: functional, organism-based; conditions: time 48.0 hrs
[25] = Hemolytic activity in sheep erythrocytes incubated for 1 hr by absorbance based assay; type: toxicity, cell-based, Ovis aries, Erythrocyte
[26] = Toxicity in BALB/c mouse assessed as inflammatory cell infiltration in renal tubular epithelial cells at 15 mg/kg, ip bid for 7 days; type: organism-based; conditions: in vivo, 168 h, time 7 day
Staphylococcus aureus [27] = test: Antibacterial activity against methicillin-resistant Staphylococcus aureus clinical isolate M12 infected in KM mouse assessed as decrease in bacterial load in skin tissues at 10 mg/kg, sc measured after 24 hrs by drop-plate counting method (reference value: 6.7); type: functional; parameters: scale not given: the % may be the effect or the level left
Staphylococcus aureus [28] = test: as §1, with “degeneration” for “pathological change in red medulla”, “hepatocytes” for “spleen”; type: functional, organism-based; conditions: time 48.0 hrs
Staphylococcus aureus [29] = test: Bactericidal activity against Staphylococcus aureus ATCC 29213 at 8 times MIC incubated for 6 hrs by time-kill assay relative to control; type: functional
Staphylococcus aureus [30] = test: Antibacterial activity against methicillin-resistant Staphylococcus aureus clinical isolate M12 infected in KM mouse assessed as intact skin at infection site at 10 mg/kg, sc measured after 24 hrs; type: functional, organism-based
Staphylococcus aureus [31] = test: Induction of membrane depolarization in methicillin-resistant Staphylococcus aureus clinical isolate M12 at 8 to 32 times MIC measured every 2 mins for 10 times by DiSC3(5) dye based analysis; type: functional, organism-based; conditions: time 20.0 min
[32] = Toxicity in KM mouse assessed as pathological change in white medulla of spleen at 20 mg/kg, sc measured after 24 hrs by H and E staining based analysis; type: organism-based; conditions: in vivo
[33] = Toxicity in KM mouse assessed as pathological change in heart at 20 mg/kg, sc measured after 24 hrs by H and E staining based analysis; type: organism-based; conditions: in vivo
[34] = Toxicity in KM mouse assessed as change in platelet count at 20 mg/kg, sc measured after 24 hrs; type: organism-based; conditions: in vivo
Staphylococcus aureus [35] = test: Antibacterial activity against methicillin-resistant Staphylococcus aureus clinical isolate M12 incubated for 16 to 18 hrs in presence of cardiolipin; type: functional; conditions: time 16-18 hrs
[36] = Toxicity in KM mouse assessed as clear skin section at 20 mg/kg, sc measured after 24 hrs by H and E staining based analysis; type: organism-based; conditions: in vivo
[37] = Toxicity in KM mouse assessed as change in urea level at 20 mg/kg, sc measured after 24 hrs; type: organism-based; conditions: in vivo

In the case of C=CCc1cc(-c2ccc(OCCC[N+](C)(C)CC(=O)NCCCC)c(CC=C)c2)c2oc(=S)n(Cc3ccc(F)cc3)c2c1.[Br-], the Activity (Staphylococcus aureus [1]) was “Active”, the Activity (Staphylococcus aureus [2]) was “Active” and the MIC (Staphylococcus aureus [3]) was 2 µg/mL. The MIC (Staphylococcus aureus [4]) was 4 µg/mL, the Activity (Staphylococcus aureus [5]) was 92.72% and the Activity (Staphylococcus aureus [6]) was “Active”. The Activity (Staphylococcus aureus [7]) was 99.67%, the “fold change (FC)” value (Staphylococcus aureus [8]) was ~1.8 and the Activity (Staphylococcus aureus [9]) was “Active”. For the same compound, the MIC (Escherichia coli) was > 128 µg/mL, the MIC (Staphylococcus aureus [10]) was 2 µg/mL and the Activity (Staphylococcus aureus [11]) was “Dose-Dependent Effect”. For the same compound, the Activity [12] was “Non-Toxic”, the Activity [13] was “Non-Toxic” and the Activity (Staphylococcus aureus [14]) was 102.6 pg/mL. The Activity (Staphylococcus aureus [15]) was “Active”, the Activity (Staphylococcus aureus [16]) was “Active” and the Activity [17] was “Non-Toxic”. For the same compound, the Activity (Staphylococcus aureus [18]) was “Active”, the Activity [19] was “Non-Toxic” and the Activity [20] was “Toxic”. For the same compound, the Activity (Staphylococcus aureus [21]) was “inactive”, the MIC (Staphylococcus aureus [22]) was 128 µg/mL and the MIC (Staphylococcus aureus [23]) was 2 µg/mL. The Activity (Staphylococcus aureus [24]) was “inactive”, the HC50 at 1 h [25] was 157 µg/mL and the Activity [26] was “Non-Toxic”. For the same compound, the Activity (Staphylococcus aureus [27]) was 4.1%, the Activity (Staphylococcus aureus [28]) was “Active” and the Activity (Staphylococcus aureus [29]) was 100%. For the same compound, the Activity (Staphylococcus aureus [30]) was “Active”, the Activity (Staphylococcus aureus [31]) was “Active” and the Activity [32] was “Non-Toxic”. The Activity [33] was “Non-Toxic”, the Activity [34] was “Non-Toxic” and the MIC (Staphylococcus aureus [35]) was 32 µg/mL. For the same compound, the Activity [36] was “Non-Toxic” and the Activity [37] was “Non-Toxic”.
